# From patent US20230148214A1, “INDAZOLES AND AZAINDAZOLES AS LRRK2 INHIBITORS” (ESCAPE Bio, Inc., priority 2020, published 2023)
# Tests used:
# [1] = target: T1, LRRK2 WT (Homo sapiens, UniProt Q5S007); assay: LRRK2 Kinase Activity Assay (LanthaScreen TR-FRET), wild type; assay type: biochemical; conditions: recombinant wild type LRRK2, 25 μM ATP, 400 nM LRRKtide, 60 min; class symbols
# T1 construct: purchased Life Technologies PR8604B
# Procedure, shortened: (§1)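 IC50 fitted to the compound-dependent loss of TR-FRET signal. Each kinase form, wild type or G2019S, phosphorylated the fluorescein-tagged ERM-derived LRRKtide in the presence of ATP and compound dilutions over 60 min at room temperature; quench contained 10 mM EDTA and 2 nM anti-pERM antibody (final).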
# [2] = target: T2, LRRK2 G2019S (Homo sapiens, UniProt Q5S007, G2019S); assay: LRRK2 Kinase Activity Assay (LanthaScreen TR-FRET), G2019S; assay type: biochemical; conditions: recombinant G2019S-LRRK2, 25 μM ATP, 400 nM LRRKtide, 60 min; class symbols
# T2 construct: purchased Life Technologies PV4881
# T2 sequence (Q5S007 whole entry G2019S): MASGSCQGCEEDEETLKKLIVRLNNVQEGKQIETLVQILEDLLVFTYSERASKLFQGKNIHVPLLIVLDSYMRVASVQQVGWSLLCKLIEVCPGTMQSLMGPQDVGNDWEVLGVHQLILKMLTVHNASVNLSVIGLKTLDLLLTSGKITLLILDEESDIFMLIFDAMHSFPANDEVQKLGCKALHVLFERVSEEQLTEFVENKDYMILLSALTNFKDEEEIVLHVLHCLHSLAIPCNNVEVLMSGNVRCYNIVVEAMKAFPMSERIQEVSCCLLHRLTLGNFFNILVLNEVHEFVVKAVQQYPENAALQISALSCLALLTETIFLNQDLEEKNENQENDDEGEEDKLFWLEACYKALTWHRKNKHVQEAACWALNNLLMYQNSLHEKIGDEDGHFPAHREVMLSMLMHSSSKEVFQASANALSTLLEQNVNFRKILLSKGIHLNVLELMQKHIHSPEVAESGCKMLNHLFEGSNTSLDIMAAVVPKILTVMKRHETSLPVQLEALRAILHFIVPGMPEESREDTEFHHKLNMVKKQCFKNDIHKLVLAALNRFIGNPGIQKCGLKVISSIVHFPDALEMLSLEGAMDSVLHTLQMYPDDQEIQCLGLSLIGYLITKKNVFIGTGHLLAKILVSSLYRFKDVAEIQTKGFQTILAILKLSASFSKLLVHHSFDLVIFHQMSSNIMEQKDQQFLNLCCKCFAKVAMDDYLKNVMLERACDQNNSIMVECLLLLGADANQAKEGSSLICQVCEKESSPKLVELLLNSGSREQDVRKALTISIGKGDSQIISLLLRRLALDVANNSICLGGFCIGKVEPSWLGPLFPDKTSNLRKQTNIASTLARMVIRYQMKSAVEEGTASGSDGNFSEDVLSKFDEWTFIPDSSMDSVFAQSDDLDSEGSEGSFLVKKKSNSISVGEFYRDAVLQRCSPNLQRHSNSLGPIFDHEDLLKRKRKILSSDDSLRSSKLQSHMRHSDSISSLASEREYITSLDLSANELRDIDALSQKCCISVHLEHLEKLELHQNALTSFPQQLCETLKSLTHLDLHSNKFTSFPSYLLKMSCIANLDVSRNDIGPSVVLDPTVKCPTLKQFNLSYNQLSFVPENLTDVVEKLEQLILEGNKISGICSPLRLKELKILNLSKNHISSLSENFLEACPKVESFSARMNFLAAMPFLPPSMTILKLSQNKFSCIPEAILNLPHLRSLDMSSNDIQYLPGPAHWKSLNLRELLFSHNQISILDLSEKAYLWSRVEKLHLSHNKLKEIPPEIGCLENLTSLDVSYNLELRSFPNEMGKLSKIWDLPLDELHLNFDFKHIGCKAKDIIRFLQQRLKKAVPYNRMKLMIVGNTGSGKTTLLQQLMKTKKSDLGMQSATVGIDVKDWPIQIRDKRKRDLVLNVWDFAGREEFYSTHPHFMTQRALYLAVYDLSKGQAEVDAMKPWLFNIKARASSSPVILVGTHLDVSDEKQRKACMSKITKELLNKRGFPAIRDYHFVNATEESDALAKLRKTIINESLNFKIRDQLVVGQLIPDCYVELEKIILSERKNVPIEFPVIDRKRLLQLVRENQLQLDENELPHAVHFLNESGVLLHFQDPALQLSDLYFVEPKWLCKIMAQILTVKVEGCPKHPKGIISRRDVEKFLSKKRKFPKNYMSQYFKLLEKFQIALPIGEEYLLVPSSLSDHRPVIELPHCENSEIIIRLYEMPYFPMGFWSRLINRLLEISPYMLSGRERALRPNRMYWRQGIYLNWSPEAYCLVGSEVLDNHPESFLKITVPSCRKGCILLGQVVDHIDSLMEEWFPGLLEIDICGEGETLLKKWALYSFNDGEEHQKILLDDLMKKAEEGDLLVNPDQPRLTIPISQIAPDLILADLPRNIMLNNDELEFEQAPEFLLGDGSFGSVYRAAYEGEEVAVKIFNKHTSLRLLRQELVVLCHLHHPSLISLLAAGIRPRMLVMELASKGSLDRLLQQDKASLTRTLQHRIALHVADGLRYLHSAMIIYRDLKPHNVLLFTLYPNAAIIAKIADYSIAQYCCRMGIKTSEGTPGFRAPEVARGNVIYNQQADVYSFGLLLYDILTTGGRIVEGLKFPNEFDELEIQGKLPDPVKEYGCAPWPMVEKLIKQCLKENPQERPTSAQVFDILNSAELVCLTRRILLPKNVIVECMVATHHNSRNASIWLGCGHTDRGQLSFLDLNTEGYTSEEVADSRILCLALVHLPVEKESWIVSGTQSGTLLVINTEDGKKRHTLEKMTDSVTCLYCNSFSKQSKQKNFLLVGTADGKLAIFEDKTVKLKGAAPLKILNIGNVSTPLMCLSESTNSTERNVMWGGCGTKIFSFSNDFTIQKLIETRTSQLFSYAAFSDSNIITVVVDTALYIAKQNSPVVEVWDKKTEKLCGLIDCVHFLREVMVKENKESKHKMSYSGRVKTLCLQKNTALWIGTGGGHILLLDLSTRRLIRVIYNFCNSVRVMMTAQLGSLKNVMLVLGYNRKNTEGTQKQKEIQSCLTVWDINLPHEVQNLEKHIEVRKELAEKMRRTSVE
# Procedure, shortened: as §1
# T1 sequence (Q5S007 whole entry): as the sequence (Q5S007 whole entry G2019S) above, with S2019G counted along it
IC50 [1],IC50 [2],SMILES
< 100 nM,< 100 nM,"Cc1ncc(-c2n[nH]c3ccc(N[C@H]4CCCc5cc(C#N)c(C)nc54)cc23)o1 (single isomer, unassigned) [Example 159, enantiomer 1, 2-Methyl-8-((3-(2-methyloxazol-5-yl)-1H-indazol-5-yl)amino)-5,6,7,8-tetrahydroquinoline-3-carbonitrile]"
< 100 nM,< 100 nM,"Cc1ncc(-c2n[nH]c3ccc(O[C@H]4CCc5cc(C#N)c(F)cc54)cc23)o1 (single isomer, unassigned) [Example 160, enantiomer 1, 6-Fluoro-1-((3-(2-methyloxazol-5-yl)-1H-indazol-5-yl)oxy)-2,3-dihydro-1H-indene-5-carbonitrile]"
< 100 nM,< 100 nM,"N#Cc1cnc2c(c1)CCC[C@@H]2Oc1ccc2[nH]nc(-c3cnccn3)c2c1 (single isomer, unassigned) [Example 161, enantiomer 1, 8-((3-(Pyrazin-2-yl)-1H-indazol-5-yl)oxy)-5,6,7,8-tetrahydroquinoline-3-carbonitrile]"
100 to 1000 nM,< 100 nM,"N#Cc1cnc2c(c1)CCC[C@@H]2Oc1ccc2[nH]nc(-c3cnccn3)c2c1 (single isomer, unassigned) [Example 161, enantiomer 2, 8-((3-(Pyrazin-2-yl)-1H-indazol-5-yl)oxy)-5,6,7,8-tetrahydroquinoline-3-carbonitrile]"
100 to 1000 nM,100 to 1000 nM,"[2H][C@]1(Nc2ccc3[nH]nc(-c4cnco4)c3c2)CCCc2cc(C#N)cnc21 (single isomer, unassigned) [Example 162, enantiomer 1, 8-Deuterio-8-((3-(oxazol-5-yl)-1H-indazol-5-yl)amino)-5,6,7,8-tetrahydroquinoline-3-carbonitrile]"
< 100 nM,< 100 nM,"[2H][C@]1(Nc2ccc3[nH]nc(-c4cnco4)c3c2)CCCc2cc(C#N)cnc21 (single isomer, unassigned) [Example 162, enantiomer 2, 8-Deuterio-8-((3-(oxazol-5-yl)-1H-indazol-5-yl)amino)-5,6,7,8-tetrahydroquinoline-3-carbonitrile]"
100 to 1000 nM,< 100 nM,"N#Cc1cnc2c(n1)CCC[C@@H]2Oc1ccc2[nH]nc(-c3cnco3)c2c1 (single isomer, unassigned) [Example 163, enantiomer 1, 5-[[3-(1,3-Oxazol-5-yl)-1H-indazol-5-yl]oxy]-5,6,7,8-tetrahydroquinoxaline-2-carbonitrile]"
100 to 1000 nM,< 100 nM,"Cc1nc2c(c(C)c1C#N)CCC[C@@H]2Nc1ccc2[nH]nc(-c3cnco3)c2c1 (single isomer, unassigned) [Example 164, enantiomer 1, 2,4-Dimethyl-8-[[3-(1,3-oxazol-5-yl)-1H-indazol-5-yl]amino]-5,6,7,8-tetrahydroquinoline-3-carbonitrile]"
100 to 1000 nM,< 100 nM,"COc1nc2c(c(C)c1C#N)CCC[C@@H]2Nc1ccc2[nH]nc(-c3cnco3)c2c1 (single isomer, unassigned) [Example 165, enantiomer 1, 2-Methoxy-4-methyl-8-[[3-(1,3-oxazol-5-yl)-1H-indazol-5-yl]amino]-5,6,7,8-tetrahydroquinoline-3-carbonitrile]"
< 100 nM,< 100 nM,"Cc1c(C#N)c(Cl)nc2c1CC[C@@H]2Oc1ccc2[nH]nc(-c3cnco3)c2c1 (single isomer, unassigned) [Example 166, enantiomer 1, 2-Chloro-4-methyl-7-[[3-(1,3-oxazol-5-yl)-1H-indazol-5-yl]oxy]-6,7-dihydro-5H-cyclopenta[b]pyridine-3-carbonitrile]"
100 to 1000 nM,< 100 nM,"N#Cc1c(F)cc2c(c1F)CC[C@@H]2Oc1ccc2[nH]nc(-c3cnco3)c2c1 (single isomer, unassigned) [Example 167, enantiomer 1, 4,6-Difluoro-1-[[3-(1,3-oxazol-5-yl)-1H-indazol-5-yl]oxy]-2,3-dihydro-1H-indene-5-carbonitrile]"
100 to 1000 nM,< 100 nM,"C[C@@H]1C[C@@H](Nc2ccc3[nH]nc(-c4cnco4)c3c2)c2ccc(C#N)cc21 (single isomer, unassigned) [Example 168, enantiomer 1, trans-3-Methyl-1-[[3-(1,3-oxazol-5-yl)-1H-indazol-5-yl]amino]-2,3-dihydro-1H-indene-5-carbonitrile]"
100 to 1000 nM,< 100 nM,"C[C@@H]1C[C@@H](Nc2ccc3[nH]nc(-c4cnco4)c3c2)c2ccc(C#N)cc21 (single isomer, unassigned) [Example 168, enantiomer 2, trans-3-Methyl-1-[[3-(1,3-oxazol-5-yl)-1H-indazol-5-yl]amino]-2,3-dihydro-1H-indene-5-carbonitrile]"
100 to 1000 nM,< 100 nM,"C[C@H]1C[C@@H](Nc2ccc3[nH]nc(-c4cnco4)c3c2)c2ccc(C#N)cc21 (single isomer, unassigned) [Example 169, enantiomer 1, cis-3-Methyl-1-[[3-(1,3-oxazol-5-yl)-1H-indazol-5-yl]amino]-2,3-dihydro-1H-indene-5-carbonitrile]"
100 to 1000 nM,< 100 nM,"C[C@H]1C[C@@H](Nc2ccc3[nH]nc(-c4cnco4)c3c2)c2ccc(C#N)cc21 (single isomer, unassigned) [Example 169, enantiomer 2, cis-3-Methyl-1-[[3-(1,3-oxazol-5-yl)-1H-indazol-5-yl]amino]-2,3-dihydro-1H-indene-5-carbonitrile]"
< 100 nM,< 100 nM,"Cc1nc2c(c(C)c1C#N)CC[C@@H]2Nc1ccc2[nH]nc(-c3cnco3)c2c1 (single isomer, unassigned) [Example 170, enantiomer 1, 2,4-Dimethyl-7-[[3-(1,3-oxazol-5-yl)-1H-indazol-5-yl]amino]-6,7-dihydro-5H-cyclopenta[b]pyridine-3-carbonitrile]"
100 to 1000 nM,< 100 nM,"Cc1nc2c(c(C)c1C#N)CC[C@@H]2Nc1ccc2[nH]nc(-c3cnco3)c2c1 (single isomer, unassigned) [Example 170, enantiomer 2, 2,4-Dimethyl-7-[[3-(1,3-oxazol-5-yl)-1H-indazol-5-yl]amino]-6,7-dihydro-5H-cyclopenta[b]pyridine-3-carbonitrile]"
< 100 nM,< 100 nM,"N#Cc1cc2c(nc1Cl)[C@@H](Oc1ccc3[nH]nc(-c4cnco4)c3c1)CC2 (single isomer, unassigned) [Example 171, enantiomer 1, 2-Chloro-7-[[3-(1,3-oxazol-5-yl)-1H-indazol-5-yl]oxy]-6,7-dihydro-5H-cyclopenta[b]pyridine-3-carbonitrile]"
100 to 1000 nM,100 to 1000 nM,"CC1(C)Cc2cc(C#N)cnc2[C@H]1Nc1ccc2[nH]nc(-c3cnco3)c2c1 (single isomer, unassigned) [Example 172, enantiomer 1, 6,6-Dimethyl-7-[[3-(1,3-oxazol-5-yl)-1H-indazol-5-yl]amino]-5,7-dihydrocyclopenta[b]pyridine-3-carbonitrile]"
< 100 nM,< 100 nM,"CC1(C)Cc2cc(C#N)cnc2[C@H]1Nc1ccc2[nH]nc(-c3cnco3)c2c1 (single isomer, unassigned) [Example 172, enantiomer 2, 6,6-Dimethyl-7-[[3-(1,3-oxazol-5-yl)-1H-indazol-5-yl]amino]-5,7-dihydrocyclopenta[b]pyridine-3-carbonitrile]"
< 100 nM,< 100 nM,"C[C@H]1CCc2cc(C#N)ccc2[C@H]1Nc1ccc2[nH]nc(-c3cnco3)c2c1 (single isomer, unassigned) [Example 173, enantiomer 1, cis-6-Methyl-5-((3-(oxazol-5-yl)-1H-indazol-5-yl)amino)-5,6,7,8-tetrahydronaphthalene-2-carbonitrile]"
100 to 1000 nM,< 100 nM,"C[C@H]1CCc2cc(C#N)ccc2[C@H]1Nc1ccc2[nH]nc(-c3cnco3)c2c1 (single isomer, unassigned) [Example 173, enantiomer 2, cis-6-Methyl-5-((3-(oxazol-5-yl)-1H-indazol-5-yl)amino)-5,6,7,8-tetrahydronaphthalene-2-carbonitrile]"
< 100 nM,< 100 nM,"C[C@@H]1CCc2cc(C#N)ccc2[C@H]1Nc1ccc2[nH]nc(-c3cnco3)c2c1 (single isomer, unassigned) [Example 174, enantiomer 1, trans-6-Methyl-5-((3-(oxazol-5-yl)-1H-indazol-5-yl)amino)-5,6,7,8-tetrahydronaphthalene-2-carbonitrile]"
100 to 1000 nM,< 100 nM,"C[C@@H]1CCc2cc(C#N)ccc2[C@H]1Nc1ccc2[nH]nc(-c3cnco3)c2c1 (single isomer, unassigned) [Example 174, enantiomer 2, trans-6-Methyl-5-((3-(oxazol-5-yl)-1H-indazol-5-yl)amino)-5,6,7,8-tetrahydronaphthalene-2-carbonitrile]"
100 to 1000 nM,< 100 nM,"N#Cc1ccc2c(c1)CCC2Nc1ccc2[nH]nc(-c3ccoc3)c2c1 (stereo not drawn) [Example 10, 1-((3-(Furan-3-yl)-1H-indazol-5-yl)amino)-2,3-dihydro-1H-indene-5-carbonitrile]"
100 to 1000 nM,< 100 nM,"N#Cc1ccc2c(c1)CC[C@@H]2Oc1ccc2[nH]nc(I)c2c1 [Example 13, 1-((3-Iodo-1H-indazol-5-yl)oxy)-2,3-dihydro-1H-indene-5-carbonitrile]"
100 to 1000 nM,< 100 nM,"N#Cc1cnc2c(c1)CC(F)(F)C2Nc1ccc2[nH]nc(-c3cnco3)c2c1 (stereo not drawn) [Example 34, 6,6-Difluoro-7-((3-(oxazol-5-yl)-1H-indazol-5-yl)amino)-6,7-dihydro-5H-cyclopenta[b]pyridine-3-carbonitrile]"
